Measurements taken from patent US8802597B2, “Herbicidal pyrimidines” (E I du Pont de Nemours and Company, priority 2003, dated 2014).
Read-outs that look alike come from different tables or passages of the source.

Experiments:
Format in all cases: in vivo
soybean (Glycine max) = test: Test C pre/postemergence; details: Glycine max; for plant injury at 62 g/ha: 62 g ai/ha; for plant injury at 125 g/ha: 125 g ai/ha; for plant injury at 250 g/ha: 250 g ai/ha; for plant injury at 500 g/ha: 500 g ai/ha
In short: (§1)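 Greenhouse herbicide screen, visual readout. Compound in solvent/surfactant applied preemergence at planting or postemergence to 1- to 4-leaf plants; assessed at 12–14 days on a 0–100 control scale.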

[1] = tested on: goosegrass (Eleusine indica); test: Test C pre/postemergence; details: Eleusine indica; for pest or weed control at 62 g/ha: 62 g ai/ha; for pest or weed control at 125 g/ha: 125 g ai/ha; for pest or weed control at 250 g/ha: 250 g ai/ha; for pest or weed control at 500 g/ha: 500 g ai/ha
In short: as §1

corn (Zea mays) = test: Test C pre/postemergence; details: Zea mays; for Corn plant response rating (crop injury, 0 = no effect, 100 = complete kill) at 62 g/ha: 62 g ai/ha; for Corn plant response rating (crop injury, 0 = no effect, 100 = complete kill) at 125 g/ha: 125 g ai/ha; for Corn plant response rating (crop injury, 0 = no effect, 100 = complete kill) at 250 g/ha: 250 g ai/ha; for Corn plant response rating (crop injury, 0 = no effect, 100 = complete kill) at 500 g/ha: 500 g ai/ha
In short: as §1

[2] = tested on: lambsquarters (Chenopodium album); test: Test C pre/postemergence; details: Chenopodium album; for pest or weed control at 62 g/ha: 62 g ai/ha; for pest or weed control at 125 g/ha: 125 g ai/ha; for pest or weed control at 250 g/ha: 250 g ai/ha; for pest or weed control at 500 g/ha: 500 g ai/ha
In short: as §1

[3] = tested on: chickweed (Stellaria media); test: Test C postemergence; details: Stellaria media, post-emergence
In short: as §1

[4] = tested on: giant foxtail (Setaria faberi); test: Test A pre/postemergence; details: Setaria faberi, 240 h, read-out: Plant response rating, Foxtail, Giant; for pest or weed control at 500 g/ha: 500 g ai/ha; for pest or weed control at 2000 g/ha: 2000 g ai/ha
In short: (§2)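 Pre/post greenhouse screen; loam/sand soil; solvent + surfactant formulation; pre = directed soil spray at planting, post = 1–2 leaf plants, 2–10 cm; ~10 d; visual 0–100 rating vs untreated.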

[5] = tested on: barnyardgrass (Echinochloa crus-galli); test: Test A pre/postemergence; details: Echinochloa crus-galli, 240 h, read-out: Plant response rating, Barnyardgrass; for pest or weed control at 500 g/ha: 500 g ai/ha; for pest or weed control at 2000 g/ha: 2000 g ai/ha
In short: as §2

[6] = tested on: velvetleaf (Abutilon theophrasti); test: Test A pre/postemergence; details: Abutilon theophrasti, 240 h, read-out: Plant response rating, Velvetleaf; for pest or weed control at 500 g/ha: 500 g ai/ha; for pest or weed control at 2000 g/ha: 2000 g ai/ha
In short: as §2

[7] = tested on: morningglory (Ipomoea spp.); test: Test A pre/postemergence; details: Ipomoea, 240 h, read-out: Plant response rating, Morningglory; for pest or weed control at 500 g/ha: 500 g ai/ha; for pest or weed control at 2000 g/ha: 2000 g ai/ha
In short: as §2

[8] = tested on: redroot pigweed (Amaranthus retroflexus); test: Test A pre/postemergence; details: Amaranthus retroflexus, 240 h, read-out: Plant response rating, Pigweed; for pest or weed control at 500 g/ha: 500 g ai/ha; for pest or weed control at 2000 g/ha: 2000 g ai/ha
In short: as §2

[9] = tested on: crabgrass (Digitaria sanguinalis); test: Test A pre/postemergence; details: Digitaria sanguinalis, 240 h, read-out: Plant response rating, Crabgrass; for pest or weed control at 500 g/ha: 500 g ai/ha; for pest or weed control at 2000 g/ha: 2000 g ai/ha
In short: as §2

[10] = post-emergence, Postemergence, scale 0 to 100 (0 no effect, 100 complete control), read-out: Soybean plant response rating
[11] = post-emergence, Postemergence, scale 0 to 100, read-out: Plant response rating, Soybean
[12] = pre-emergence, Preemergence, scale 0 to 100, read-out: Plant response rating, Soybean
[13] = post-emergence, Postemergence, scale 0 to 100 (0 no effect, 100 complete control), read-out: Goosegrass plant response rating
[14] = post-emergence, Postemergence, scale 0 to 100, read-out: Plant response rating, Goosegrass
[15] = pre-emergence, Preemergence, scale 0 to 100, read-out: Plant response rating, Goosegrass
[16] = post-emergence, Postemergence, scale 0 to 100 (0 no effect, 100 complete control), read-out: Corn plant response rating
[17] = post-emergence, Postemergence, scale 0 to 100
[18] = pre-emergence, Preemergence, scale 0 to 100
[19] = post-emergence, Postemergence, scale 0 to 100 (0 no effect, 100 complete control), read-out: Lambsquarters plant response rating
[20] = post-emergence, Postemergence, scale 0 to 100, read-out: Plant response rating, Lambsquarters
[21] = pre-emergence, Preemergence, scale 0 to 100, read-out: Plant response rating, Lambsquarters
[22] = post-emergence, Postemergence, 0 to 100 scale (0 no effect, 100 complete control)
[23] = pre-emergence, Preemergence, 0 to 100 scale where 0 is no effect and 100 is complete control, approximately ten days
[24] = pre-emergence, Preemergence, 0 to 100 scale (0 no effect, 100 complete control)

**Q.** What does the source list for `CCOC(=O)c1nc(C2CC2)nc(N)c1Br` [Compound 1, ethyl 6-amino-5-bromo-2-cyclopropyl-4-pyrimidinecarboxylate]?
**A.** plant injury at 62 g/ha (soybean (Glycine max); [10]): 100%; plant injury at 125 g/ha (soybean (Glycine max); [10]): 100%; plant injury at 250 g/ha (soybean (Glycine max); [11]): 100%; plant injury at 500 g/ha (soybean (Glycine max); [11]): 100%; plant injury at 62 g/ha (soybean (Glycine max); pre-emergence, Preemergence, scale 0 to 100, 0 no effect, 100 complete control, read-out: Plant response rating, Soybean): 85%; plant injury at 125 g/ha (soybean (Glycine max); [12]): 100%; plant injury at 250 g/ha (soybean (Glycine max); [12]): 100%; plant injury at 500 g/ha (soybean (Glycine max); [12]): 100%; pest or weed control at 62 g/ha [1, 13]: 0%; pest or weed control at 125 g/ha [1, 13]: 0%; pest or weed control at 250 g/ha [1, 14]: 40%; pest or weed control at 500 g/ha [1, 14]: 70%; pest or weed control at 62 g/ha ([1]; pre-emergence, Preemergence, scale 0 to 100, 0 no effect, 100 complete control, read-out: Plant response rating, Goosegrass): 0%; pest or weed control at 125 g/ha [1, 15]: 0%; pest or weed control at 250 g/ha [1, 15]: 10%; pest or weed control at 500 g/ha [1, 15]: 70%; Corn plant response rating (crop injury, 0 = no effect, 100 = complete kill) at 62 g/ha (corn (Zea mays); [16]): 10%; Corn plant response rating (crop injury, 0 = no effect, 100 = complete kill) at 125 g/ha (corn (Zea mays); [16]): 15%; Corn plant response rating (crop injury, 0 = no effect, 100 = complete kill) at 250 g/ha (corn (Zea mays); [17]): 40%; Corn plant response rating (crop injury, 0 = no effect, 100 = complete kill) at 500 g/ha (corn (Zea mays); [17]): 45%; Corn plant response rating (crop injury, 0 = no effect, 100 = complete kill) at 62 g/ha (corn (Zea mays); pre-emergence, Preemergence, scale 0 to 100, 0 no effect, 100 complete control, read-out: Plant response rating, Corn): 0%; Corn plant response rating (crop injury, 0 = no effect, 100 = complete kill) at 125 g/ha (corn (Zea mays); pre-emergence, Preemergence, scale 0 to 100, read-out: Plant response rating, Corn): 0%; Corn plant response rating (crop injury, 0 = no effect, 100 = complete kill) at 250 g/ha (corn (Zea mays); [18]): 50%; Corn plant response rating (crop injury, 0 = no effect, 100 = complete kill) at 500 g/ha (corn (Zea mays); [18]): 70%; pest or weed control at 62 g/ha [2, 19]: 100%; pest or weed control at 125 g/ha [2, 19]: 100%; pest or weed control at 250 g/ha [2, 20]: 100%; pest or weed control at 500 g/ha [2, 20]: 100%; pest or weed control at 62 g/ha ([2]; pre-emergence, Preemergence, scale 0 to 100, 0 no effect, 100 complete control, read-out: Plant response rating, Lambsquarters): 95%; pest or weed control at 125 g/ha [2, 21]: 100%; pest or weed control at 250 g/ha [2, 21]: 100%; pest or weed control at 500 g/ha [2, 21]: 100%; pest or weed control at 62 g/ha ([3]; 62 g ai/ha, scale 0 to 100 (0 no effect, 100 complete control), read-out: Chickweed plant response rating): 80%; pest or weed control at 250 g/ha ([3]; 250 g ai/ha, scale 0 to 100, read-out: Plant response rating, Chickweed): 90%; pest or weed control at 500 g/ha [4, 22]: 70%; pest or weed control at 2000 g/ha [4, 22]: 75%; pest or weed control at 500 g/ha [4, 23]: 40%; pest or weed control at 2000 g/ha [4, 24]: 85%; pest or weed control at 500 g/ha [5, 22]: 75%; pest or weed control at 2000 g/ha [5, 22]: 75%; pest or weed control at 500 g/ha [5, 23]: 60%; pest or weed control at 2000 g/ha [5, 24]: 80%; pest or weed control at 500 g/ha [6, 22]: 95%; pest or weed control at 2000 g/ha [6, 22]: 85%; pest or weed control at 500 g/ha [6, 23]: 60%; pest or weed control at 2000 g/ha [6, 24]: 80%; pest or weed control at 500 g/ha [7, 22]: 95%; pest or weed control at 2000 g/ha [7, 22]: 100%; pest or weed control at 500 g/ha [7, 23]: 85%; pest or weed control at 2000 g/ha [7, 24]: 100%; pest or weed control at 500 g/ha [8, 22]: 100%; pest or weed control at 2000 g/ha [8, 22]: 100%; pest or weed control at 500 g/ha [8, 23]: 85%; pest or weed control at 2000 g/ha [8, 24]: 100%; pest or weed control at 500 g/ha [9, 22]: 65%; pest or weed control at 2000 g/ha [9, 22]: 80%; pest or weed control at 500 g/ha [9, 23]: 25%; pest or weed control at 2000 g/ha [9, 24]: 75%
